The values below come from US6395909B1, “Substituted benzopyran derivatives and their use as anticonvulsants” (priority 1998, dated 2002).

The target of data set [1] is novel receptor obtainable from rat forebrain tissue. As to the kind of experiment: Radioligand binding assay, [3H]-Compound A displacement in rat forebrain tissue. The note with it: competition with [3H]-Compound A (usually 20 nM). The method, then: WO 92/22293 (SmithKline Beecham) discloses compounds having anti-convulsant activity, including inter alia the compound (3R, 4S)-6-acetyl-(4-fluorobenzoylamino)-3,4-dihydro-2,2-dimethyl-2H-1-benzopyran-3-ol (hereinafter referred to as Compound A). […] The affinity of test compounds to the novel receptor site is assessed as follows.
Whole forebrain tissue is obtained from rats. The tissue is first homogenised in buffer (usually 50 mM Tris/HCl, pH 7.4). The homogenised tissue is washed by centrifugation and resuspension in the same buffer, then stored at −70° C. until used.
To carry out the radioligand binding assay, aliquots of tissue prepared as above (usually at a concentration of 1-2 mg protein/ml) are mixed with aliquots of [3H]-Compound A dissolved in buffer. The final concentration of [3H]-Compound A in the mixture is usually 20 nM. The mixture is incubated at room temperature for 1 hour. [3H]-Compound A bound to the tissue is then separated from unbound [3H]-Compound A by filtration through Whatman GF/B glass fibre filters. The filters are then washed rapidly with ice-cold buffer. The amount of radioactivity bound to the tissue trapped on the filters is measured by addition of liquid scintillation cocktail to the filters followed by counting in a liquid scintillation counter. […]

Data set [2] concerns electrically-induced seizures. The data set can be described thus: Maximal electroshock seizure threshold (MEST) test. Format: in vivo. To be noted: rat, intravenous route, solution in 20% PEG, 1 mg/kg, tested 30 min post dosing. The procedure: The maximal electroshock seizure threshold (MEST) test in rodents is particularly sensitive for detecting potential anticonvulsant properties^1. In this model, anticonvulsant agents elevate the threshold to electrically-induced seizures whilst proconvulsants lower the seizure threshold. Rats (naive male, Charles River, U.K. Sprague Dawley strain, 100-150 g) are randomly assigned to groups of 10-20 and dosed orally, intravenously or intraperitoneally at a dose volume of 1 ml/kg with various doses of compound (0.1-300 mg/kg) or vehicle. […] The mean current and standard error required to induce a tonic seizure in 50% (CC50) of the rats in a particular treatment group is determined by the ‘up and down’ method of Dixon and Mood (1948)^2. Statistical comparisons between vehicle- and drug-treated groups are made using the method of Litchfield and Wilcoxon (1949)^3. In control animals the CC50 is usually 20-30 mA. […] If a tonic convulsion does occur, then the current is decreased, and so on until all the animals in the group have been tested. The percentage increase or decrease in CC50 for each group compared to the control is calculated. Studies are carried out using a Hugo Sachs Electronik Constant Current Shock Generator with totally variable control of shock level from 0 to 300 mA and steps of 5-20 mA are usually used. […]

The melting point is the temperature of the solid-liquid transition. As to `CC1(C)Oc2ccc(C(=O)CO)cc2[C@H](NC(=O)c2cc(F)cc(F)c2)[C@H]1O` [Example 1, (3R,4S)-4-(3,5-difluorobenzamido)-3,4-dihydro-2,2-dimethyl-3-hydroxy-6-(2-hydroxyacetyl)-2H-1-benzopyran], the melting point came out at 179.4 °C. This compound came in with a pKi value in data set [1] of 7.35. Further, the “increase in seizure threshold relative to control” value in data set [2] amounted to 317%.

As for `CC1(C)Oc2ccc(C(=O)CO)cc2[C@H](NC(=O)c2ccc(F)cc2)[C@H]1O` [Example 3, (3R,4S)-4-(4-fluorobenzamido)-3,4-dihydro-2,2-dimethyl-3-hydroxy-6-(2-hydroxyacetyl)-2H-1-benzopyran], the melting point worked out at 216 °C.
